Test results as given in patent publication US20230293530A1, “AGENTS FOR SENSITIZING SOLID TUMORS TO TREATMENT” (Yeda Research and Development Co. Ltd., priority 2020, published 2023).

Key:
[1] = system: 4T1 cells; assay: In-vivo EDHB experiment, 4T1 tumors in mammary fat pad; set-up: species or system female BALB/c mice
Experimental: In-vivo EDHB experiment: Eight-week-old female BALB/c mice were inoculated with 4T1 in the mammary fat pad (1 × 10^6 cells). ethyl 3,4 dihydroxybenzoate (EDHB) treatment was started after 4 days when the primary tumor nodule was established and palpable. EDHB (40 mg per kg) was intraperitoneally injected daily into cancer-bearing mice. EDHB was initially dissolved in 100% Ethanol and diluted to required concentration in saline. 95% Saline/5% Ethanol mix without drug was injected as a vehicle to control animals. Following injection, mice were treated with 250 ug of anti PD-1 antibody on days 7, 11, 13, 15. On day 19, mice were euthanized and tumors were removed and weighted.

[2] = system: 4T1 breast cancer cells; assay: In-vitro EDHB nucleotide analysis by LC-MS, 4T1; format: cell-based, murine; settings: 4T1 cells, 200 uM EDHB, 8 hours
Excerpt: LC-MS analysis: The LC-MS/MS instrument consisting of an Acquity I-class UPLC system (Waters) and Xevo TQ-S triple quadrupole mass spectrometer (Waters), equipped with an electrospray ion source, and operated in positive ion mode was used for analysis of nucleoside monophosphates. MassLynx and TargetLynx software (version 4.1, Waters) were applied for the acquisition and analysis of data. Chromatographic separation was done on a 100 mm × 2.1 mm internal diameter, 1.8-µm UPLC HSS T3 column equipped with 50 mm × 2.1 mm internal diameter, 1.8-µm UPLC HSS T3 pre-column (both Waters Acquity) with mobile phases A (10 mM ammonium acetate and 5 mM ammonium hydrocarbonate buffer, pH 7.65 adjusted with 10% acetic acid) and B (acetonitrile) at a flow rate of 0.3 mL min-1 and column temperature 25° C. […] Nucleotide concentration was calculated using a standard curve of the relevant nucleotide concentration in each sample. Standard curves included increasing concentration of all measured nucleotides ranging from 0-10 ug/ml that were positioned at the beginning and at the end of each run. All the calculated values for the different nucleotides in each sample fell within the standard curve range. […]

[3] = system: NSCLC PDX explants with autologous CD8+ T cells; assay: Co-culture of NSCLC PDX tumor explants with autologous CD8+ T cells, IFNγ ELISA; format: cell-based, human; settings: for IFNγ secretion by autologous CD8+ T cells, anti-PD1 plus mizoribine-treated explants: explants pre-treated with mizoribine 0.3 mM 10 hrs, nivolumab or pembrolizumab 20 µg/mL, 18 hours
Excerpt: Two patients bearing metastatic non-small cell lung cancer (NSCLC) were included in this study. Blood samples and fresh tumor tissue samples were procured just after their biopsy with patient consent and with Helsinki approval (number 0093-19-SOR). The samples were placed in serum free DMEM (Gibco) media then processed for implantation in NSG (NOD scid gamma) mice. Tumor tissue samples were implanted subcutaneously in dorsal flanks of the mice to form patient-derived xenografts (PDXs). All animal experiments were done under Institutional Animal Care and Use Committee (IACUC) of Ben-Gurion University of the Negev (BGU’s IACUC) according to specified protocols aiming to ensure animal welfare and reduce su □ ering. The Animal ethical clearance protocol number used for this research is IL-80-12-2015. After isolation of peripheral blood mononuclear cells (PBMCs) from the peripheral blood of the patients according to standard protocol using Lymphocyte Separation Medium (LSM, MP Biomedicals, SKU 0850494-CF), CD8^+ T cells were isolated from PBMCs by employing human CD8 Microbeads (Miltenyi Biotec, 130-045-201), LS column (Miltenyi Biotec, 130-042-401) and MidiMACS Separator (130-042-302) following manufacturer’s protocol. For culturing and maintenance of CD8 T cells, RPMI containing 10% human male AB plasma (Sigma, H4522), 1 mM sodium pyruvate, 2 mM L-glutamine, 0.1 mM MEM non-essential amino acids, 1% penicillin/streptomycin, 10 mM HEPES (Life Technologies), 200 IU/mL recombinant human IL-2 (PeproTech) and 50 ng/mL anti-human CD3 Antibody (BioLegend, 317302) were used for the first 48 hrs followed by culturing and passaging in media containing 200 IU/mL of IL-2.
2×2×2 mm^3 tumor tissue explants were cut from PDXs with a specific tissue cutter and seeded singly in 48 well flat-bottom plates and incubated with either mizoribine (0.3 mM) in 400 µl of media or with only media for 10 hrs. Then, explants were washed once and transferred into new 48 well flat-bottom plates containing 2×10^5 CD8+T cells/well along with nivolumab (Opdivo, 20 µg/mL), pembrolizumab (Keytruda, 20 µg/mL) or mock solventin fresh 400 µl RPMI containing 20 IU/ml ofIL-2. After 18 hours of incubation, the supernatant was collected from the wells and then assayed for standard IFNγ ELISA assay (ELISA MAX, Biolegend) according to manufacturer’s instructions.
Two patients bearing metastatic non-small cell lung cancer (NSCLC) were included in this study. Blood samples and fresh tumor tissue samples were procured just after their biopsy with patient consent and with Helsinki approval (number 0093-19-SOR). The samples were placed in serum free DMEM (Gibco) media then processed for implantation in NSG (NOD scid gamma) mice (NOD.Cg-Prkdcscid Il2rgtm1Wjl, The Jackson Laboratory). Tumor tissue samples were implanted subcutaneously in dorsal flanks of the 7-9 weeks old male mice to form patient-derived xenografts (PDXs).
After isolation of peripheral blood mononuclear cells (PBMCs) from the peripheral blood of the patients according to standard protocol using Lymphocyte Separation Medium (LSM, MP Biomedicals, SKU 0850494-CF), CD8^+ T cells were isolated from PBMCs by employing human CD8 Microbeads (Miltenyi Biotec, 130-045-201), LS column (Miltenyi Biotec, 130-042-401) and MidiMACS Separator (130-042-302) following manufacturer’s protocol. For culturing and maintenance of CD8 T cells, RPMI containing 10% human male AB plasma (Sigma, H4522), 1 mM sodium pyruvate, 2 mM L-glutamine, 0.1 mM MEM non-essential amino acids, 1% penicillin/streptomycin, 10 mM HEPES (Life Technologies), 200 IU/mL recombinant human IL-2 (PeproTech) and 50 ng/mL anti-human CD3 Antibody (BioLegend, 317302) were used for the first 48 hrs followed by culturing and passaging in media containing 200 IU/mL of IL-2.
PDXs from patients with lung cancer non responsive to anti-PD1 were exposed to no treatment, to mizoribine, or to either EDHB (left panel) or Viagra (right panel). […]

[4] = system: A549 cells; assay: Nucleotide levels by LC-MS with or without methotrexate; format: cell-based; settings: 1.2 µM Methotrexate
Experimental: Methotrexate treatment: A549 cells were grown for 48 hr in control medium or supplemented with 1.2 µM Methotrexate (Holland-Moran). Nucleotide levels were measured as described below by LC-MS. Purine/pyrimidine ratio was calculated by dividing (AMP+GMP+ATP+ADP+GTP) concentration by (UMP+CMP+TMP+UTP+CTP+TTP) concentration.
LC-MS analysis: The LC-MS/MS instrument consisting of an Acquity I-class UPLC system (Waters) and Xevo TQ-S triple quadrupole mass spectrometer (Waters), equipped with an electrospray ion source, and operated in positive ion mode was used for analysis of nucleoside monophosphates. MassLynx and TargetLynx software (version 4.1, Waters) were applied for the acquisition and analysis of data. Chromatographic separation was done on a 100 mm × 2.1 mm internal diameter, 1.8-µm UPLC HSS T3 column equipped with 50 mm × 2.1 mm internal diameter, 1.8-µm UPLC HSS T3 pre-column (both Waters Acquity) with mobile phases A (10 mM ammonium acetate and 5 mM ammonium hydrocarbonate buffer, pH 7.65 adjusted with 10% acetic acid) and B (acetonitrile) at a flow rate of 0.3 mL min-1 and column temperature 25° C. A gradient was used as follows: for 0-3 min the column was held at 0.2% B, then 3-3.5 min a linear increase to 100% B, 3.5-4.0 min held at 100% B, 4.0-4.5 min back to 0.2% B and equilibration at 0.2% B for 2.5 min. Samples kept at 8° C. were automatically injected in a volume of 3 µl. For mass spectrometry, argon was used as the collision gas with a flow of 0.10 mL min-1. The capillary voltage was set to 2.50 kV, source temperature 150° C., desolvation temperature 400° C., cone gas flow 150 1 hr-1, desolvation gas flow 800 1 hr-1. Nucleotide concentration was calculated using a standard curve of the relevant nucleotide concentration in each sample. Standard curves included increasing concentration of all measured nucleotides ranging from 0-10 ug/ml that were positioned at the beginning and at the end of each run. All the calculated values for the different nucleotides in each sample fell within the standard curve range. Analytes were detected in positive mode using multiple-reaction monitoring listed in Lee, J. S. et al. 2018 (REF_9).
Nucleotide levels of 4T1 cells grown either with or without 1.2 µM Methotrexate (Holland-Moran) for 48 h, were measured and quantified by liquid chromatography-mass spectrometry (LC-MS) as µg/mg protein.

Compound: CCOC(=O)c1ccc(O)c(O)c1 [EDHB, Ethyl 3,4 dihydroxybenzoate]
- tumor weight, EDHB and anti PD-1 combination treatment ([1]; 40 mg/kg EDHB IP daily from day 4, 250 ug anti PD-1 IP days 7, 11, 13, 15): reduces tumor weight
- total weight of the mice ([1]; 40 mg/kg EDHB IP daily, with anti PD-1): did not cause any change
- cellular deoxypyrimidine to deoxypurine ratio (pyrimidine / purine ratio) [2]: increase in pyrimidine / purine ratio
- response to anti-PD1 therapy (IFN-g response) in PDX of non responsive patients ([3]; PDXs from lung cancer patients non responsive to anti-PD1, IFN-g measured following anti-PD1): increases response to anti-PD1 therapy

Compound: nivolumab: anti-PD1 antibody
- IFNγ secretion by autologous CD8+ T cells, anti-PD1 plus mizoribine-treated explants [3]: significant elevation in IFNγ secretion

Compound: pembrolizumab: anti-PD1 antibody
- IFNγ secretion by autologous CD8+ T cells, anti-PD1 plus mizoribine-treated explants [3]: significant elevation in IFNγ secretion

Compound: CN(Cc1cnc2nc(N)nc(N)c2n1)c1ccc(C(=O)N[C@@H](CCC(=O)O)C(=O)O)cc1 [Methotrexate]
- AMP level, Methotrexate Treatment ([4]; 48 h, 4T1 cells): 483.2 µg/mg pt
- ATP level, Methotrexate Treatment ([4]; 48 h, 4T1 cells): 75.1 µg/mg pt
- CMP level, Methotrexate Treatment ([4]; 48 h, 4T1 cells): 7.3 µg/mg pt
- CTP level, Methotrexate Treatment ([4]; 48 h, 4T1 cells): 12.0 µg/mg pt
- GMP level, Methotrexate Treatment ([4]; 48 h, 4T1 cells): 28.46 µg/mg pt
- GTP level, Methotrexate Treatment ([4]; 48 h, 4T1 cells): 16.7 µg/mg pt
- TMP level, Methotrexate Treatment ([4]; 48 h, 4T1 cells): 0.0078 µg/mg pt
- TTP level, Methotrexate Treatment ([4]; 48 h, 4T1 cells): 0.004432 µg/mg pt
- UMP level, Methotrexate Treatment ([4]; 48 h, 4T1 cells): 38.39 µg/mg pt
- UTP level, Methotrexate Treatment ([4]; 48 h, 4T1 cells): 36.9 µg/mg pt
- purine to pyrimidine ratio ([4]; high ASS1 expressing lung cancer cells (A549), 48 hr): decreased their purine to pyrimidine ratio
